Experimental data: US10420755B2, “Use of ciclopirox for the treatment of congenital erythropoietic porphyria” (ASOCIACIÓN CENTRO DE INVESTIGACIÓN COOPERATIVA EN …, priority 2016, dated 2019)
Changes are numbered by the printed parent chain. Where a SMILES comes first, the peptide text is derived from it. The star is where a group is joined. Cbz = O=C(OCc1ccccc1)*

Tests used:
HEK 562 = assay: Porphyrin accumulation (fluorocytes) by FACS in cellular model of CEP; type: cell-based, human; conditions: HEK 562 CEP model
Method: FIG. 3: Evaluation of UROI levels in a normal HEK cellular phenotype [Up-left graph], in a human in vitro cellular model of CEP (HEK 562) [Up-right graph], in HEK 562 with a tool compound (a proteasome inhibitor termed in the data MG) [Down-left graph], and in HEK 562 with ciclopirox [Down-right graph]. The accumulation of porphyrins is measured by fluorescence spectroscopy (fluorocytes) and is depicted in as the right-shift of the population as compared to normal cells (that are concentrated on the left due to the absence of intrinsic fluorescence). The numbers in bold indicate the percentage of cells in each of the specific populations. CP=ciclopirox, MG=proteasomal inhibitor MG132.
The current supporting data disclosed is in relation to a human in vitro cellular model of CEP (HEK 562) in which there is a stable genomic defect introduced into the uroporphyrinogen III synthase enzyme which drives the accumulation of toxic porphyrins and ultimately the pathology of CEP (including the characteristic disabling and disfiguring skin lesions in CEP patients). […] The accumulation of porphyrins is measured by fluorescence spectroscopy (fluorocytes) and appear shifted to the right as compared to normal cells (which are concentrated in the left area). The numbers in bold indicate the percentage of cells in each of the specific populations. […]

[1] = tested on: mouse in vivo model of CEP; conditions: associated with elevation of cellular UROIIIS levels; cited from earlier work
HEK 562 cells = assay: HPLC quantification of UROI in cellular model of CEP; type: cell-based, human; conditions: equimolar quantities of MG and ciclopirox
Method: Inset: variation of the concentration of UROI as a function of the CP concentration, in comparison to MG and the absence of any chemical. CP=ciclopirox, MG=proteasomal inhibitor MG132, UROI=uroporphyrinogen I.
Moreover, the reduction in the fluorescence corresponds to a decrease in the intracellular concentration of UROI (see FIG. 4).
HPLC was used to separate and quantify UROI and UROIII products from PBGD and UROIIIS-C73N enzymatic assays and from cellular extracts. HPLC was carried out on a ODS Hypersil C18 column (5 um, 3×200 mm; Thermo Scientific, MA, USA). Porphyrins were separated with a 15 min isocratic elution in a mobile phase of 89% 1M ammonium acetate buffer pH 5.16 and 11% Acetonitrile, at a flow rate of 0.5 mL/min, and were detected by fluorescence with an excitation wavelength 405 nm and emission wavelength 610 nm, which is characteristic of porphyrins. The sample injection volume was […].

[2] = tested on: murine model of CEP (P248Q+/+); assay: Murine model of CEP treated with ciclopirox in food; type: in vivo, mouse
From the text: FIG. 5: Change in porphyrin levels and consequent effect on splenomegaly in mice treated with ciclopirox (CPX). A) Left: URO I or B) COPRO I porphyrin concentration in red blood cells (RBC) as determined by HPLC analysis for the mouse group treated with CPX (n=7, solid line) and the control group (n=9, dashed line). Right: representation of the same porphyrin levels but compared to their respective values at day 0 for the mice treated with CPX (solid line) and the untreated mice (dashed line). The reduction of porphyrins between the two groups is shown in grey dashed line (in percentage). C) Variation in the protoporphyrin IX (PROTO IX) concentration over time in the mouse group treated with CPX (solid line) and the control group (dashed line). D) Concentration of porphyrins in urine at day 45 of treatment (normalized versus creatinine concentration). E) Change in UROI levels in the liver at day 45 of treatment (weight normalized) F) CPX reduces splenomegaly after 45 days of treatment since the spleen volume of the untreated mice (top row) is higher than the CPX treated group (bottom row) Splenomegaly is directly associated with haemolytic anaemia.
Upon treatment disruption, the porphyrin levels are restored, but slowly.
Additionally, after 45 days of treatment, ciclopirox reduced in 40% the porphyrin levels in liver tissue (shown in FIG. 5-E for UROI) and the splenomegaly (FIG. 5-F)—evidence of reduced haemolysis. Moreover, there was a significant weight reduction of the spleen when comparing the ciclopirox group (mean 410±86 mg, FIG. 5-F bottom row) and the untreated group (mean 985±204 mg, FIG. 5-F top row).
A total of 16 animals (murine model of CEP) were used in the experiment and ciclopirox was mixed with the food pellets; 7 animals had food with ciclopirox (plasma levels achieved between 15 and 20 μM) and 9 animals were not given treatment. The isomer I porphyrin levels were monitored in the blood weekly. After a basal (pre-treatment) sample (day 0), treatment was started on day 2 and the first post-treatment sample was obtained on day 3, followed by weekly monitoring.

C73N-UROIIIS = target: T1, C73N-UROIIIS (Homo sapiens, UniProt P10746, C73N); assay: In vitro enzymatic assay of UROIIIS (PBGD-coupled, as a function of PBG concentration); type: biochemical; conditions: ratio UROIIIS:ciclopirox 1:5
T1 construct: made in house
T1 sequence (P10746 1-265 C73N): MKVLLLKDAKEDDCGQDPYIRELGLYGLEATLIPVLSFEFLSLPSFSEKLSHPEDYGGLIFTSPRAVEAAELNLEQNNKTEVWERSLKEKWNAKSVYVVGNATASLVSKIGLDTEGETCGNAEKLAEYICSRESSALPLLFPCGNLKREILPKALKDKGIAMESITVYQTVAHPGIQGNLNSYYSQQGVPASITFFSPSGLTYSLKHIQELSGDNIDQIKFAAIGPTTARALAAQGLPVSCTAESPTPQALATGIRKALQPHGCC
Method: FIG. 1: evaluation of the C73N-UROIIIS catalytic activity as a function of the PBG concentration. Porphobilinogen deaminase (PBGD) converts porphobilinogen (PBG) into preuroporphirinogen, the substrate for UROIIIS. PBGD is added in excess, acting as a reagent and the experiment reports only on the catalytic activity of the uroporphyrinogen III synthase. The solid/dashed lines correspond to the experimental points in the absence/presence of ciclopirox at a ratio UROIIIS:ciclopyrox 1:5.
The in vitro activity of a deleterious variant of the UROIIIS is measured as a function of the PBG concentration. […] C73N-UROIIIS produces reduced catalytic activity of the enzyme (FIG. 1, solid line).
The assay is based on the method described by Jordan (Shoolingin-Jordan P M et al. (1997). Methods in enzymology 281: 327-336) with some modifications. […] of porphobilinogen deaminase (PBGD) at a concentration of […] in […] of buffer (20 mM Tris-HCl pH 8.0, NaCl 150 mM, pH 8.0) is add in a 96 weels plate. […] of the porphobilinogen (PBG) substrate are then added, diluted to different concentrations (0.1, 0.4, 0.8, 1.5, 2, 3, 4 mM) in the aforementioned buffer and are incubated at 37° C. for one minute. […] Finally, we measure the change of absorbance at 405 nm with respect to the control sample in a plate ABS reader.

C73R- and P248Q-UROIIIS = target: T2, C73R- and P248Q-UROIIIS (Homo sapiens, UniProt P10746, C73R); assay: UROIIIS-GFP protein levels (GFP fluorescence) in HEK cells stably expressing mutants; type: cell-based; conditions: HEK cells expressing C73R or P248Q mutants, compared with WT-UROIIIS
T2 construct: expressed in transfected cells
T2 sequence (P10746 1-265 C73R): T1 sequence (P10746 1-265 C73N) with N73R
From the text: FIG. 2: A fusion construct with GFP (C73R-UROIIIS-GFP) has been stably expressed in HEK cells to measure the increase in the protein levels, by monitoring the intrinsic GFP fluorescence. […] Introduction of the pathogenic mutations (i. e. C73R or P248Q) reduces the intrinsic fluorescence due to a decrease in the intracellular UROIIIS concentration. […] For comparison, data obtained with a powerful proteasome inhibitor (MG) is also included. Dashed lines correspond to error bars. CP=ciclopirox, MG=proteasomal inhibitor MG132.
Specifically, we have tested the protein expression for the two most aggressive mutations: C73R- and P248Q-UROIIIS (FIG. 2), utilising human embryonic kidney cells (HEK) stably expressing these mutations.

UROIIIS = target: T3, UROIIIS (Homo sapiens, UniProt P10746); assay: Direct binding by NMR spectroscopy
T3 construct: made in house
T3 sequence (P10746 1-265): T1 sequence (P10746 1-265 C73N) with N73C

[3] = treated vs control group, up to day 45

Row | Structure (SMILES) | Porphyrin accumulation / cellular phenotype (fluorocytes) (HEK 562) | Skin lesions [1] | UROI level by HPLC (HEK 562 cells) | Reduction of porphyrin levels in liver tissue (UROI) ([2]; after 45 days of treatment) | Splenomegaly ([2]; after 45 days of treatment) | Spleen weight (mean) ([2]; after 45 days of treatment, untreated group 985±204 mg) | Isomer I porphyrins in urine ([2]; day 45, normalized versus creatinine) | Protoporphyrin IX (PROTO IX) concentration ([2]; over time, treated vs control) | COPRO I porphyrin in blood (RBC) [2, 3] | URO I porphyrin in blood (RBC) [2, 3] | C73N-UROIIIS catalytic (enzymatic) activity (C73N-UROIIIS) | Intracellular UROIIIS-GFP fluorescence levels (C73R- and P248Q-UROIIIS) | Direct binding to the enzyme (UROIIIS)
1 | CC(C)C[C@@H](C=O)NC(=O)[C@H](CC(C)C)NC(=O)[C@H](CC(C)C)NC(=O)OCc1ccccc1 [MG] (Cbz-Leu-Leu-Leu-aldehyde) | reduces toxic porphyrin levels | decreased skin lesions | reduction of UROI | – | – | – | – | – | – | – | – | – | –
2 | Cc1cc(C2CCCCC2)n(O)c(=O)c1 [ciclopirox, 6-cyclohexyl-1-hydroxy-4-methyl-2(1H)-pyridone] | largely restore the normal HEK cellular phenotype | – | reduction of UROI | 40% | reduced | 410 ± 86 mg | significantly reduced | increase the concentration | significantly reduced | significantly reduced | recovers the enzymatic activity | largely restitutes the fluorescence levels observed with WT-UROIIIS | Direct binding has also been demonstrated
